# System: MV-4-11 cells
# Assay: Gene expression microarray analysis (Affymetrix PrimeView) and GSEA
# Type: cell-based, human
# Parameters: RFU PODN (11730768_x_at) / Fold change /veh PODN (11730768_x_at) / RFU LINC00158 (11744669_a_at) / Fold change /veh LINC00158 (11744669_a_at) / RFU DUSP10 (11751237_a_at) / Fold change /veh DUSP10 (11751237_a_at) / RFU ID3 (11757404_x_at) / Fold change /veh ID3 (11757404_x_at) / RFU PLEKHG5 (11737974_s_at) / Fold change /veh PLEKHG5 (11737974_s_at) / RFU LRRC4B (11730491_at) / Fold change /veh LRRC4B (11730491_at) / RFU GIMAP4 (11747438_a_at) / Fold change /veh GIMAP4 (11747438_a_at) / RFU KRT8 (11758183_x_at) / Fold change /veh KRT8 (11758183_x_at) / RFU CNN1 (11734310_a_at) / Fold change /veh CNN1 (11734310_a_at) / RFU VPS37D (11726825_at) / Fold change /veh VPS37D (11726825_at) / RFU C10orf10 (11716522_x_at) / Fold change /veh C10orf10 (11716522_x_at) / RFU KIR2DL2 /// KIR2DL4 /// KIR2DL5A /// KIR2DL5B /// KIR2DS1 /// KIR2DS2 /// KIR2DS3 /// KIR2DS4 /// KIR3DL3 /// KIR3DL3 /// KIR3DS1 (11738374_at) / Fold change /veh KIR2DL2 /// KIR2DL4 /// KIR2DL5A /// KIR2DL5B /// KIR2DS1 /// KIR2DS2 /// KIR2DS3 /// KIR2DS4 /// KIR3DL3 /// KIR3DL3 /// KIR3DS1 (11738374_at) / RFU C1QL1 (11718748_at) / Fold change /veh C1QL1 (11718748_at) / RFU TMPRSS4 (11747572_a_at) / Fold change /veh TMPRSS4 (11747572_a_at) / RFU HAMP (11756126_x_at) / Fold change /veh HAMP (11756126_x_at) / RFU RNFT2 (11725882_a_at) / Fold change /veh RNFT2 (11725882_a_at) / RFU NR4A2 (11747474_a_at) / Fold change /veh NR4A2 (11747474_a_at) / RFU ABCC12 (11746883_a_at) / Fold change /veh ABCC12 (11746883_a_at) / RFU TMEM136 (11760407_x_at) / Fold change /veh TMEM136 (11760407_x_at) / RFU CLDN22 /// WWC2 (11732394_at) / Fold change /veh CLDN22 /// WWC2 (11732394_at) / RFU HLA-DPB1 (11760878_x_at) / Fold change /veh HLA-DPB1 (11760878_x_at) / RFU SPINT1 (11716480_a_at) / Fold change /veh SPINT1 (11716480_a_at) / RFU GAP43 (11754022_s_at) / Fold change /veh GAP43 (11754022_s_at) / RFU A4GNT (11735810_at) / Fold change /veh A4GNT (11735810_at) / RFU PRB3 (11715151_x_at) / Fold change /veh PRB3 (11715151_x_at) / RFU TUBB4B (11761932_at) / Fold change /veh TUBB4B (11761932_at) / RFU CAPN14 (11732068_a_at) / Fold change /veh CAPN14 (11732068_a_at) / RFU TMCC2 (11721928_a_at) / Fold change /veh TMCC2 (11721928_a_at) / RFU IRGQ (11745062_a_at) / Fold change /veh IRGQ (11745062_a_at) / RFU FAM174B (11720279_a_at) / Fold change /veh FAM174B (11720279_a_at) / RFU TMPRSS4 (11748680_a_at) / Fold change /veh TMPRSS4 (11748680_a_at) / RFU FAM212B (11763350_a_at) / Fold change /veh FAM212B (11763350_a_at) / RFU PLEKHG5 (11743358_a_at) / Fold change /veh PLEKHG5 (11743358_a_at) / RFU ZSCAN30 (11745921_a_at) / Fold change /veh ZSCAN30 (11745921_a_at) / RFU CMKLR1 (11741424_a_at) / Fold change /veh CMKLR1 (11741424_a_at) / RFU LOC101060620 /// MAPK8IP1 (11723275_at) / Fold change /veh LOC101060620 /// MAPK8IP1 (11723275_at) / RFU SPTSSB (11747773_x_at) / Fold change /veh SPTSSB (11747773_x_at) / RFU PRSS12 (11739890_at) / Fold change /veh PRSS12 (11739890_at) / RFU BIN1 (11741810_x_at) / Fold change /veh BIN1 (11741810_x_at) / RFU WNT11 (11732464_a_at) / Fold change /veh WNT11 (11732464_a_at) / RFU C10orf10 (11716521_a_at) / Fold change /veh C10orf10 (11716521_a_at) / RFU C5orf56 (11738089_at) / Fold change /veh C5orf56 (11738089_at) / RFU CYB561 (11721691_x_at) / Fold change /veh CYB561 (11721691_x_at) / RFU ANKRD19P (11752326_a_at) / Fold change /veh ANKRD19P (11752326_a_at) / RFU OR2T12 /// OR2T33 /// OR2T8 (11738714_s_at) / Fold change /veh OR2T12 /// OR2T33 /// OR2T8 (11738714_s_at) / RFU VCAN (11748164_a_at) / Fold change /veh VCAN (11748164_a_at) / RFU JSRP1 (11732532_at) / Fold change /veh JSRP1 (11732532_at) / RFU KRTAP10-11 (11738290_x_at) / Fold change /veh KRTAP10-11 (11738290_x_at) / RFU MYO3A (11730013_a_at) / Fold change /veh MYO3A (11730013_a_at) / RFU EBF3 (11725865_a_at) / Fold change /veh EBF3 (11725865_a_at) / RFU CAMK2N1 (11719241_x_at) / Fold change /veh CAMK2N1 (11719241_x_at) / RFU C5orf56 (11738088_a_at) / Fold change /veh C5orf56 (11738088_a_at) / RFU OLFML3 (11715873_a_at) / Fold change /veh OLFML3 (11715873_a_at) / RFU LOC100653217 /// NTM (11731650_a_at) / Fold change /veh LOC100653217 /// NTM (11731650_a_at) / RFU MAPK11 (11762145_a_at) / Fold change /veh MAPK11 (11762145_a_at) / RFU FIZ1 (11724087_x_at) / Fold change /veh FIZ1 (11724087_x_at) / RFU OASL (11726364_x_at) / Fold change /veh OASL (11726364_x_at) / RFU SOX15 (11748057_x_at) / Fold change /veh SOX15 (11748057_x_at) / RFU CD79A (11719716_a_at) / Fold change /veh CD79A (11719716_a_at) / RFU HIST1H1D (11736915_at) / Fold change /veh HIST1H1D (11736915_at) / RFU CASKIN2 (11723855_a_at) / Fold change /veh CASKIN2 (11723855_a_at) / RFU LOC730098 (11760151_x_at) / Fold change /veh LOC730098 (11760151_x_at) / RFU OR4N2 (11742367_at) / Fold change /veh OR4N2 (11742367_at) / RFU PRRT2 (11749266_a_at) / Fold change /veh PRRT2 (11749266_a_at) / RFU SNX32 (11753110_a_at) / Fold change /veh SNX32 (11753110_a_at) / RFU CDHR5 (11726645_a_at) / Fold change /veh CDHR5 (11726645_a_at) / RFU RCAN1 (11760418_a_at) / Fold change /veh RCAN1 (11760418_a_at) / RFU FAM167A (11723789_a_at) / Fold change /veh FAM167A (11723789_a_at) / RFU FAM26E (11764081_at) / Fold change /veh FAM26E (11764081_at) / RFU ISYNA1 (11749810_s_at) / Fold change /veh ISYNA1 (11749810_s_at) / RFU ACY1 (11761880_at) / Fold change /veh ACY1 (11761880_at) / RFU 11764098_at / Fold change /veh 11764098_at / RFU SAMD14 (11745864_x_at) / Fold change /veh SAMD14 (11745864_x_at) / RFU NPB (11741838_a_at) / Fold change /veh NPB (11741838_a_at) / RFU TMPRSS6 (11731388_a_at) / Fold change /veh TMPRSS6 (11731388_a_at) / RFU KRTAP10-2 (11738614_at) / Fold change /veh KRTAP10-2 (11738614_at) / RFU ARHGAP8 /// PRR5-ARHGAP8 (11727945_x_at) / Fold change /veh ARHGAP8 /// PRR5-ARHGAP8 (11727945_x_at) / RFU KRTAP5-7 /// NADSYN1 (11734609_at) / Fold change /veh KRTAP5-7 /// NADSYN1 (11734609_at) / RFU RASL12 (11751679_a_at) / Fold change /veh RASL12 (11751679_a_at) / RFU CDKN2B (11736163_a_at) / Fold change /veh CDKN2B (11736163_a_at) / RFU PRF1 (11729649_at) / Fold change /veh PRF1 (11729649_at) / RFU, ZNF638 /// ZNF638-IT1 / Fold change vs veh, ZNF638 /// ZNF638-IT1 / RFU, PANK3 / Fold change vs veh, PANK3 / RFU, SH3YL1 / Fold change vs veh, SH3YL1 / RFU, ZEB2 / Fold change vs veh, ZEB2 / RFU, NRIP1 / Fold change vs veh, NRIP1 / RFU, PTTG1IP / Fold change vs veh, PTTG1IP / RFU, CAPN2 / Fold change vs veh, CAPN2 / RFU, MED14 / Fold change vs veh, MED14 / RFU, SNORA58 / Fold change vs veh, SNORA58 / RFU, C1orf63 / Fold change vs veh, C1orf63 / RFU, LRRFIP1 / Fold change vs veh, LRRFIP1 / RFU, NDUFAF7 / Fold change vs veh, NDUFAF7 / RFU, SLC12A2 / Fold change vs veh, SLC12A2 / RFU, IBTK / Fold change vs veh, IBTK / RFU, ESF1 / Fold change vs veh, ESF1 / Fold change vs veh, TMEM50B / RFU, TAOK1 / Fold change vs veh, TAOK1 / RFU, ACBD3 / Fold change vs veh, ACBD3 / RFU, TMA16 / Fold change vs veh, TMA16 / RFU, RWDD3 / Fold change vs veh, RWDD3 / RFU, BCAT1 / Fold change vs veh, BCAT1 / RFU, EDEM3 / Fold change vs veh, EDEM3 / RFU, TMEM33 / Fold change vs veh, TMEM33 / RFU, WDR75 / Fold change vs veh, WDR75 / RFU, AHCTF1 / Fold change vs veh, AHCTF1 / RFU, TFRC / Fold change vs veh, TFRC / RFU, ZDHHC17 / Fold change vs veh, ZDHHC17 / RFU, NOM1 / Fold change vs veh, NOM1 / RFU, ARL8B / Fold change vs veh, ARL8B / RFU, ZBTB11 / Fold change vs veh, ZBTB11 / RFU, TAMM41 / Fold change vs veh, TAMM41 / RFU, KIAA1704 /// LOC100996395 / Fold change vs veh, KIAA1704 /// LOC100996395 / RFU, ING1 / Fold change vs veh, ING1 / RFU, TRMT61B / Fold change vs veh, TRMT61B / RFU, FUBP3 / Fold change vs veh, FUBP3 / RFU, TP53 / Fold change vs veh, TP53 / RFU, TNKS2 / Fold change vs veh, TNKS2 / RFU, ZFP14 / Fold change vs veh, ZFP14 / RFU, ACTR2 / Fold change vs veh, ACTR2 / RFU, PPP3R1 / Fold change vs veh, PPP3R1 / RFU, PIK3R1 / Fold change vs veh, PIK3R1 / RFU, HNRNPA1 / Fold change vs veh, HNRNPA1 / RFU, RNF170 / Fold change vs veh, RNF170 / RFU, ZNF28 / Fold change vs veh, ZNF28 / RFU, RNGTT / Fold change vs veh, RNGTT / RFU, OGT / Fold change vs veh, OGT / RFU, BRD1 / Fold change vs veh, BRD1 / RFU, MARS / Fold change vs veh, MARS / RFU, ZNF655 / Fold change vs veh, ZNF655 / RFU, FAHD1 / Fold change vs veh, FAHD1 / RFU, BDP1 / Fold change vs veh, BDP1 / RFU, LRRCC1 / Fold change vs veh, LRRCC1 / RFU, ARID1A / Fold change vs veh, ARID1A / RFU, ZNF146 / Fold change vs veh, ZNF146 / RFU, ZNF330 / Fold change vs veh, ZNF330 / RFU, GPN3 / Fold change vs veh, GPN3 / RFU, C9orf123 / Fold change vs veh, C9orf123 / RFU, N4BP2L2 / Fold change vs veh, N4BP2L2 / RFU, ARFIP1 / Fold change vs veh, ARFIP1 / RFU, FAM179B / Fold change vs veh, FAM179B / RFU, BCL10 / Fold change vs veh, BCL10 / RFU, UHRF1BP1L / Fold change vs veh, UHRF1BP1L / RFU, BET1 / Fold change vs veh, BET1 / RFU, CNOT2 / Fold change vs veh, CNOT2 / RFU, ZNF268 / Fold change vs veh, ZNF268 / Fold change vs veh, ZNF507 / RFU, DGCR2 / Fold change vs veh, DGCR2 / RFU, WDSUB1 / Fold change vs veh, WDSUB1 / Fold change vs veh, HSP90B1 /// MIR3652 / RFU, ADSS / Fold change vs veh, ADSS / RFU, GK / Fold change vs veh, GK / RFU, ZNF148 / Fold change vs veh, ZNF148 / RFU, TAF9 / Fold change vs veh, TAF9 / RFU, SLC1A5 / Fold change vs veh, SLC1A5 / RFU, SLMO2 / Fold change vs veh, SLMO2 / RFU, ABCC4 / Fold change vs veh, ABCC4 / RFU, LOC101060439 /// RAP1B / Fold change vs veh, LOC101060439 /// RAP1B / RFU, RFX7 / Fold change vs veh, RFX7 / RFU, GTPBP10 / Fold change vs veh, GTPBP10 / RFU, CNEP1R1 / Fold change vs veh, CNEP1R1 / RFU, BIVM-ERCC5 /// ERCC5 / Fold change vs veh, BIVM-ERCC5 /// ERCC5 / RFU, ILF3 / Fold change vs veh, ILF3 / RFU 11762660_at / Fold change /veh 11762660_at / RFU VCAN (11757783_s_at) / Fold change /veh VCAN (11757783_s_at) / RFU DDX43 (11728927_at) / Fold change /veh DDX43 (11728927_at) / RFU KRT8 (11758188_x_at) / Fold change /veh KRT8 (11758188_x_at) / RFU NKD1 (11759106_at) / Fold change /veh NKD1 (11759106_at) / RFU SRD5A1 (11742802_a_at) / Fold change /veh SRD5A1 (11742802_a_at) / RFU TPSAB1 /// TPSB2 (11721975_s_at) / Fold change /veh TPSAB1 /// TPSB2 (11721975_s_at) / RFU GSTM3 (11746129_a_at) / Fold change /veh GSTM3 (11746129_a_at) / RFU IL23R (11737362_x_at) / Fold change /veh IL23R (11737362_x_at) / RFU TMEM51 (11727254_a_at) / Fold change /veh TMEM51 (11727254_a_at) / RFU PIWIL2 (11732686_x_at) / Fold change /veh PIWIL2 (11732686_x_at) / RFU ORM1 (11744905_x_at) / Fold change /veh ORM1 (11744905_x_at) / RFU CCDC152 (11743942_at) / Fold change /veh CCDC152 (11743942_at) / RFU ECM1 (11717891_a_at) / Fold change /veh ECM1 (11717891_a_at) / RFU IL23R (11748794_a_at) / Fold change /veh IL23R (11748794_a_at) / RFU TNFAIP8L3 (11732012_x_at) / Fold change /veh TNFAIP8L3 (11732012_x_at) / RFU MBOAT4 (11741988_at) / Fold change /veh MBOAT4 (11741988_at) / RFU 11764193_at / Fold change /veh 11764193_at / RFU TMEM53 (11763286_at) / Fold change /veh TMEM53 (11763286_at) / RFU MAGEB2 (11727129_at) / Fold change /veh MAGEB2 (11727129_at) / RFU TMEM200A (11744735_a_at) / Fold change /veh TMEM200A (11744735_a_at) / RFU CCDC152 (11751479_a_at) / Fold change /veh CCDC152 (11751479_a_at) / RFU FAM211A (11726209_a_at) / Fold change /veh FAM211A (11726209_a_at) / RFU RGS16 (11746705_a_at) / Fold change /veh RGS16 (11746705_a_at) / RFU VCAN (11755009_s_at) / Fold change /veh VCAN (11755009_s_at) / RFU RHOB (11743442_s_at) / Fold change /veh RHOB (11743442_s_at) / RFU RGS16 (11720943_a_at) / Fold change /veh RGS16 (11720943_a_at) / RFU RGS16 (11720944_at) / Fold change /veh RGS16 (11720944_at) / RFU, VPS4B / Fold change vs veh, VPS4B / RFU, CREB1 / Fold change vs veh, CREB1 / RFU, DNAJC13 / Fold change vs veh, DNAJC13 / RFU, GNAQ / Fold change vs veh, GNAQ / RFU, CDK5R1 / Fold change vs veh, CDK5R1 / RFU, ZRANB3 / Fold change vs veh, ZRANB3 / RFU, CUL4A / Fold change vs veh, CUL4A / RFU, CCNY / Fold change vs veh, CCNY / RFU, UFL1 / Fold change vs veh, UFL1 / RFU, COG3 / Fold change vs veh, COG3 / RFU, DIAPH2 / Fold change vs veh, DIAPH2 / RFU, SKA2 / Fold change vs veh, SKA2 / RFU, AFF3 / Fold change vs veh, AFF3 / RFU, LMF1 / Fold change vs veh, LMF1 / RFU, IPO11 / Fold change vs veh, IPO11 / RFU, DFFB / Fold change vs veh, DFFB / RFU, FOXP1 / Fold change vs veh, FOXP1 / RFU, CARD8 / Fold change vs veh, CARD8 / RFU, STRN3 / Fold change vs veh, STRN3 / RFU, ADK / Fold change vs veh, ADK / RFU, RASSF2 / Fold change vs veh, RASSF2 / RFU, WIPF1 / Fold change vs veh, WIPF1 / RFU, LARP1B / Fold change vs veh, LARP1B / RFU, RASA1 / Fold change vs veh, RASA1 / RFU, RB1 / Fold change vs veh, RB1 / RFU, PPFIA1 / Fold change vs veh, PPFIA1 / RFU, MAT2A / Fold change vs veh, MAT2A / RFU, CCT5 / Fold change vs veh, CCT5 / RFU, WDR92 / Fold change vs veh, WDR92 / RFU, CUX1 / Fold change vs veh, CUX1 / RFU, TTC7A / Fold change vs veh, TTC7A / RFU, TMEM135 / Fold change vs veh, TMEM135 / RFU, DEPTOR / Fold change vs veh, DEPTOR / RFU, CPM / Fold change vs veh, CPM / RFU, DNAJB6 / Fold change vs veh, DNAJB6 / RFU, CACNA2D3 / Fold change vs veh, CACNA2D3 / RFU, DTX4 / Fold change vs veh, DTX4 / RFU, TFCP2 / Fold change vs veh, TFCP2 / RFU, GMCL1 /// GMCL1P1 / Fold change vs veh, GMCL1 /// GMCL1P1 / RFU, AEBP2 / Fold change vs veh, AEBP2 / RFU, SNHG1 /// SNORD22 /// SNORD25 /// SNORD26 /// SNORD27 /// SNORD28 /// SNORD29 /// SNORD31 / Fold change vs veh, SNHG1 /// SNORD22 /// SNORD25 /// SNORD26 /// SNORD27 /// SNORD28 /// SNORD29 /// SNORD31 / Fold change (Aza/veh), C12orf56 (ProbeSet 11735607_a_at) / Fold change (ACY-1035/veh), C12orf56 (ProbeSet 11735607_a_at) / Fold change (Aza/veh), FGFR1OP (ProbeSet 11751329_s_at) / Fold change (ACY-1035/veh), FGFR1OP (ProbeSet 11751329_s_at) / Fold change (Aza/veh), VPS36 (ProbeSet 11739960_a_at) / Fold change (ACY-1035/veh), VPS36 (ProbeSet 11739960_a_at) / RFU SYPL1 (11715823_x_at) / Fold change /veh SYPL1 (11715823_x_at) / RFU IGFBP7 (11715501_s_at) / Fold change /veh IGFBP7 (11715501_s_at) / RFU REEP3 (11722064_at) / Fold change /veh REEP3 (11722064_at) / RFU IGLL1 (11728026_x_at) / Fold change /veh IGLL1 (11728026_x_at): dose or concentration left out as unconfirmed
# Conditions: ProbeSet 11725885_a_at; LIST B
structure (smiles),measurement,value
Nc1ccc(-c2cccs2)cc1NC(=O)c1ccc2c(c1)cc(C1CC1)n2CCN1CCOCC1 [ACY-1035],"Fold change vs veh, CNEP1R1",1.08

# From paper PMC5218480 (PLoS ONE, 2017)
